Test results from patent publication US4321265A, “7α-Methoxycephalosporins” (Toyama Chemical Co., Ltd., priority 1977, dated 1982).
≈ marks a conversion by molar mass, not a printed value. Like-named read-outs stand apart in the source and are kept apart here.

Experiments:
[1] = biological target: T1, Cephalosporinase (E. coli GN-5482) (Escherichia coli, UniProt P00811); assay: Stability to β-lactamase, iodometry (Perret); format: biochemical; details: E. coli GN-5482 cephalosporinase; CER = 100; 30° C., pH 7.0
T1 construct: native preparation, details not in excerpts
Experimental: (§1) The stability to β-lactamase was examined by iodometry at 30° C. by the method of Perret (Perret, C. J., "Iodometric assay of penicillinase", Nature, 174, 1012-1013 (1954)), except that a 0.1 M phosphate buffer solution (pH 7.0) was used in place of the 0.2 M phosphate buffer solution (pH 6.5). The stability of each compound was shown in Table 2 in terms of relative degree of hydrolysis, assuming the stability of Cephaloridin (CER) to cephalosporinase as 100 and the stability of Penicillin G (PCG) to penicillinase as 100.

[2] = biological target: T2, Cephalosporinase (S. marcescens W-8) (Serratia marcescens, UniProt P18539); assay: Stability to β-lactamase, iodometry (Perret); format: biochemical; details: S. marcescens W-8 cephalosporinase; CER = 100; 30° C., pH 7.0
T2 construct: native preparation, details not in excerpts
Experimental: as §1

[3] = test system: Penicillinase (E. coli TK-3); assay: Stability to β-lactamase, iodometry (Perret); format: biochemical; details: E. coli TK-3 penicillinase; PCG = 100; 30° C., pH 7.0
Experimental: as §1

[4] = test system: Penicillinase (K. pneumoniae Y-4); assay: Stability to β-lactamase, iodometry (Perret); format: biochemical; details: K. pneumoniae Y-4 penicillinase; PCG = 100; 30° C., pH 7.0
Experimental: as §1

[5] = test system: Penicillinase (P. aeruginosa GN-3379); assay: Stability to β-lactamase, iodometry (Perret); format: biochemical; details: P. aeruginosa GN-3379 penicillinase; PCG = 100; 30° C., pH 7.0
Experimental: as §1

[6] = test system: Acinetobacter caloaceticus A-6; assay: Minimum inhibitory concentration (MIC), Heart Infusion agar; format: cell-based; details: read-out: minimum inhibitory concentration (MIC)
Experimental: (§2) Antibacterial activities of the representative compounds (Ib) of the 7α-methoxycephalosporins according to this invention are shown in Table 1. [drawing 20]
(§3) The figures given in Table 1 represent the minimum inhibitory concentration (MIC in mcg/ml) of each compound, which was determined according to the method described in "Chemotherapy (Society of Chemotherapy, Japan), Vol. 16, 98-99 (1968)": A culture obtained by cultivating the test bacterium in a Heart Infusion broth (Eiken Kagaku Co.) was inoculated into a Heart Infusion agar medium (Eiken Kagaku Co.). After 20 hours of the incubation at 37° C., the growth of the bacterium was inspected to determine the minimum inhibitory concentration (MIC in mcg/ml). The inoculation rate of the bacterium was 10^4 cells/plate (10^6 cells/ml).
(§4) (1) Minimum inhibitory concentration (MIC in mcg/ml).

[7] = test system: C. freundii GN-346 (Cephalosporinase-producing bacterium); assay: as above; format: cell-based; details: Citrobacter freundii, read-out: minimum inhibitory concentration (MIC)
Experimental: as §2, §3, §4

Citrobacter N-7 = assay: as above; format: cell-based; details: read-out: minimum inhibitory concentration (MIC)
Experimental: as §2, §3, §4

E. coli NIHJ = assay: as above; format: cell-based; details: Escherichia coli, read-out: minimum inhibitory concentration (MIC)
Experimental: as §2, §3, §4

Ent. cloacae IID977 = assay: as above; format: cell-based; details: Enterobacter cloacae, read-out: minimum inhibitory concentration (MIC)
Experimental: as §2, §3, §4

K. pneumoniae Y-50 = assay: as above; format: cell-based; details: Klebsiella pneumoniae, read-out: minimum inhibitory concentration (MIC)
Experimental: as §2, §3, §4

Klebsiella spp. Y-72 = assay: as above; format: cell-based; details: read-out: minimum inhibitory concentration (MIC)
Experimental: as §2, §3, §4

Prot. vulgaris GN-76 = assay: as above; format: cell-based; details: Proteus vulgaris, read-out: minimum inhibitory concentration (MIC)
Experimental: as §2, §3, §4

Ps. aeruginosa IFO-3445 = assay: as above; format: cell-based; details: Pseudomonas aeruginosa, read-out: minimum inhibitory concentration (MIC)
Experimental: as §2, §3, §4

Ps. aeruginosa S-68 = assay: as above; format: cell-based; details: Pseudomonas aeruginosa, read-out: minimum inhibitory concentration (MIC)
Experimental: as §2, §3, §4

[8] = test system: S. aureus F-19 (Penicillinase-producing bacterium); assay: as above; format: cell-based; details: Staphylococcus aureus, read-out: minimum inhibitory concentration (MIC)
Experimental: as §2, §3, §4

Ser. marcescens IID620 = assay: as above; format: cell-based; details: Serratia marcescens, read-out: minimum inhibitory concentration (MIC)
Experimental: as §2, §3, §4

Ser. marcescens W-8 = assay: as above; format: cell-based; details: Serratia marcescens, read-out: minimum inhibitory concentration (MIC)
Experimental: as §2, §3, §4

Ser. marcescens W-35 = assay: as above; format: cell-based; details: Serratia marcescens, W35, 20 h
Experimental: as §2
as §3, with “The inoculation rate of the bacterium was 10^4 cells/plate (10^6 cells/ml).” left out
as §4

S. marcescens W-35 = assay: Infection-protective activity in mice; format: in vivo, ICR-strain mice (male); details: subcutaneous, one hour after intraperitoneal inoculation; challenge dose 2.5 × 10^5 cells/mouse; ICR mice
Source text: Four-week old ICR-strain mice (male) in groups, each group consisting of five mice, were inoculated intraperitoneally with a prescribed quantity of a pathogenic bacterium suspended in 5% mucin. After one hour from the inoculation, the mice were subcutaneously administered with the test preparation to determine the infection-protective activity. The figures in Table 4 represent the protective activity in terms of ED50.

[9] = A6, Acinetobacter caloaceticus A-6, 10^6 cells/ml, 20 hours, 37° C.
[10] = GN346, C. freundii GN-346, 10^6 cells/ml, 20 hours, 37° C.
[11] = N7, Citrobacter N-7, 10^6 cells/ml, 20 hours, 37° C.
[12] = E. coli NIHJ, 10^6 cells/ml, 20 hours, 37° C.
[13] = Ent. cloacae IID977, 10^6 cells/ml, 20 hours, 37° C.
[14] = Y50, K. pneumoniae Y-50, 10^6 cells/ml, 20 hours, 37° C.
[15] = SPP.Y72, Klebsiella spp. Y-72, 10^6 cells/ml, 20 hours, 37° C.
[16] = GN76, Prot. vulgaris GN-76, 10^6 cells/ml, 20 hours, 37° C.
[17] = IFO3445, Ps. aeruginosa IFO-3445, 10^6 cells/ml, 20 hours, 37° C.
[18] = S68, Ps. aeruginosa S-68, 10^6 cells/ml, 20 hours, 37° C.
[19] = S. aureus F-19, 10^6 cells/ml, 20 hours, 37° C.
[20] = Ser. marcescens IID620, 10^6 cells/ml, 20 hours, 37° C.
[21] = W8, Ser. marcescens W-8, 10^6 cells/ml, 20 hours, 37° C.
[22] = Ser. marcescens W-35, 10^6 cells/ml, 20 hours, 37° C. (Table 1), read-out: minimum inhibitory concentration (MIC)

T2 sequence (P18539 22-376): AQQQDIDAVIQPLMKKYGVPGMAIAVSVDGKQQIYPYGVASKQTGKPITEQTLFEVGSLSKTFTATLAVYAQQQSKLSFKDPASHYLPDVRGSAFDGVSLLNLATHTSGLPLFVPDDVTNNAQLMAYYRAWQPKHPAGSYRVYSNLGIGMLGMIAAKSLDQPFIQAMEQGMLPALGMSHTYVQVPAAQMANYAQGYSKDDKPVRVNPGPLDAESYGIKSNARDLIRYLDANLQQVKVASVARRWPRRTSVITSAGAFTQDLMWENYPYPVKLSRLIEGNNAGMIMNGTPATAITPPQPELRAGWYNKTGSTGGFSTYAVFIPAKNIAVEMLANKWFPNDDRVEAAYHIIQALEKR
T1 sequence (P00811 20-377): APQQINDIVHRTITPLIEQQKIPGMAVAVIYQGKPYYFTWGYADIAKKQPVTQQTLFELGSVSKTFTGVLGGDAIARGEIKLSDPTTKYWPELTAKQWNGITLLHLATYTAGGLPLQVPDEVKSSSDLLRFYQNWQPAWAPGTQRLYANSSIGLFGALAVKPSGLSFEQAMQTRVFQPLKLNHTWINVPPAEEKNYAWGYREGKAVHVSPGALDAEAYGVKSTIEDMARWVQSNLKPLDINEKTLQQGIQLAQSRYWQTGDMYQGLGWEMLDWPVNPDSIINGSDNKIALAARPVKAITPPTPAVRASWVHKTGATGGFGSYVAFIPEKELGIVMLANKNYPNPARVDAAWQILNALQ

SMILES	Stability to β-lactamase, relative degree of hydrolysis [1]	Stability to β-lactamase, relative degree of hydrolysis [2]	Stability to β-lactamase, relative degree of hydrolysis [3]	Stability to β-lactamase, relative degree of hydrolysis [4]	Stability to β-lactamase, relative degree of hydrolysis [5]	MIC [6, 9] [µg/mL]	MIC [7, 10] [µg/mL]	MIC (Citrobacter N-7; [11]) [µg/mL]	MIC (E. coli NIHJ; [12]) [µg/mL]	MIC (Ent. cloacae IID977; [13]) [µg/mL]	MIC (K. pneumoniae Y-50; [14]) [µg/mL]	MIC (Klebsiella spp. Y-72; [15]) [µg/mL]	MIC (Prot. vulgaris GN-76; [16]) [µg/mL]	MIC (Ps. aeruginosa IFO-3445; [17]) [µg/mL]	MIC (Ps. aeruginosa S-68; [18]) [µg/mL]	MIC [8, 19] [µg/mL]	MIC (Ser. marcescens IID620; [20]) [µg/mL]	MIC (Ser. marcescens W-8; [21]) [µg/mL]	MIC (Ser. marcescens W-35; [22]) [µg/mL]	other results
Cc1nnc(SCC2=C(C(=O)O)N3C(=O)[C@@H](NC(=O)Cn4cnnn4)[C@H]3SC2)s1 [CEZ, Cefazolin]	130	94	21	4	2	–	–	–	–	–	–	–	–	–	–	–	–	–	–	–
CO[C@@]1(NC(=O)CSCC#N)C(=O)N2C(C(=O)O)=C(CSc3nnnn3C)CS[C@@H]21 [CS-1170, reference compound]	–	–	–	–	–	–	–	–	–	–	–	–	–	–	–	–	–	–	–	MIC ([6]; Acinetobacter, A6, 20 h): 50 µg/mL (≈ 106 µM); MIC ([7]; GN346, 20 h): ≥ 200 µg/mL; MIC (Citrobacter N-7; Citrobacter, N7, 20 h): 25 µg/mL (≈ 53 µM); MIC (E. coli NIHJ; 20 h): 0.39 µg/mL (≈ 0.827 µM); MIC (Ent. cloacae IID977; IID977, 20 h): ≥ 200 µg/mL; MIC (K. pneumoniae Y-50; Y50, 20 h): 0.39 µg/mL (≈ 0.827 µM); MIC (Klebsiella spp. Y-72; Klebsiella, SPP.Y72, 20 h): 12.5 µg/mL (≈ 26.5 µM); MIC (Prot. vulgaris GN-76; GN76, 20 h): 3.13 µg/mL (≈ 6.64 µM); MIC (Ps. aeruginosa IFO-3445; IFO3445, 20 h): ≥ 200 µg/mL; MIC (Ps. aeruginosa S-68; S68, 20 h): ≥ 200 µg/mL; MIC ([8]; 20 h): 1.56 µg/mL (≈ 3.31 µM); MIC (Ser. marcescens IID620; IID620, 20 h): 3.13 µg/mL (≈ 6.64 µM); MIC (Ser. marcescens W-8; W8, 20 h): ≥ 200 µg/mL; MIC (Ser. marcescens W-35; S. marcescens W-35, inoculated bacteria quantity 10^6 cells/ml (Table 4)): 100 µg/mL (≈ 212 µM); MIC (Ser. marcescens W-35; S. marcescens W-35, inoculated bacteria quantity 10^8 cells/ml (Table 4)): 200 µg/mL (≈ 424 µM); MIC (Ser. marcescens W-35; read-out: minimum inhibitory concentration (MIC), Ser. marcescens W-35, 10^6 cells/ml, 20 hours, 37° C. (Table 1)): 100 µg/mL (≈ 212 µM); ED50 (infection-protective activity) (S. marcescens W-35): 15.1 mg/mouse
CCN1CCN(C(=O)N[C@@H](C(=O)N[C@]2(OC)C(=O)N3C(C(=O)O)=C(COC(C)=O)CS[C@@H]32)c2cccs2)C(=O)C1=O [OCOCH3, 7β-[D(-)-α-(4-ethyl-2,3-dioxo-1-piperazinecarboxamido)-α-(2-thienyl)-acetamido]-7α-methoxy-3-acetoxymethyl-Δ^3-cephem-4-carboxylic acid]	–	–	–	–	–	25 (≈ 41 µM)	100 (≈ 164 µM)	3.13 (≈ 5.13 µM)	≤ 0.1	50 (≈ 82 µM)	1.56 (≈ 2.56 µM)	6.25 (≈ 10.3 µM)	1.56 (≈ 2.56 µM)	50 (≈ 82 µM)	50 (≈ 82 µM)	6.25 (≈ 10.3 µM)	3.13 (≈ 5.13 µM)	100 (≈ 164 µM)	50 (≈ 82 µM)	–
CC1(C)S[C@@H]2[C@H](NC(=O)Cc3ccccc3)C(=O)N2[C@H]1C(=O)O [PC-G, Penicillin G]	22	21	100	100	100	–	–	–	–	–	–	–	–	–	–	–	–	–	–	–
CCN1CCN(C(=O)NC(C(=O)N[C@]2(OC)C(=O)N3C(C(=O)O)=C(CSc4nnnn4C)CS[C@@H]32)c2cccs2)C(=O)C1=O (stereo partly shown) [drawing 22]	–	–	–	–	–	12.5 (≈ 18.8 µM)	25 (≈ 37.6 µM)	0.78 (≈ 1.17 µM)	≤ 0.1	25 (≈ 37.6 µM)	0.39 (≈ 0.586 µM)	6.25 (≈ 9.39 µM)	0.2 (≈ 0.3 µM)	12.5 (≈ 18.8 µM)	12.5 (≈ 18.8 µM)	3.13 (≈ 4.7 µM)	0.78 (≈ 1.17 µM)	25 (≈ 37.6 µM)	6.25 (≈ 9.39 µM)	–
